These results are taken from patent US9828390B2, “Tetrahydropyrrolo[3,4-D][1,3]thiazine-derivative as BACE inhibitor” (Eli Lilly and Company, priority 2014, dated 2017).

The nature of this data set: Crystal form stability versus relative humidity. It is filed as physicochemical.

Take `COc1cnc(C(=O)Nc2ccc(F)c([C@]34CN(c5ncc(F)cn5)C[C@@H]3CN=C(N)S4)c2)cn1.O` [Example 1B, Crystalline Form 2 N-[3-[(4aR,7aS)-2-Amino-6-(5-fluoropyrimidin-2-yl)-4,4a,5,7-tetrahydropyrrolo[3,4-d][1,3]thiazin-7a-yl]-4-fluoro-phenyl]-5-methoxy-pyrazine-2-carboxamide (hydrated)]: the Crystal form stability result (room temperature and relative humidity greater than about 15%) was “stable crystal form”. Take `COc1cnc(C(=O)Nc2ccc(F)c([C@]34CN(c5ncc(F)cn5)C[C@H]3CSC(N)=N4)c2)cn1` [Example 1A, Crystalline Form 1 N-[3-[(4aR,7aS)-2-Amino-6-(5-fluoropyrimidin-2-yl)-4,4a,5,7-tetrahydropyrrolo[3,4-d][1,3]thiazin-7a-yl]-4-fluoro-phenyl]-5-methoxy-pyrazine-2-carboxamide]: the Crystal form stability result (room temperature and relative humidity less than about 15%) is listed as “stable crystal form”.
